Test results reported in patent US12435377B2, “Cancers with loss of chromosome 16Q and/or low expression of metallothionein proteins” (THE BROAD INSTITUTE, INC., priority 2018, dated 2025).
Read-outs that look alike come from different tables or passages of the source.

Assays:
[1] = test system: biomarker-presenting cell lines; experiment: Cytotoxicity of disulfiram metabolites to biomarker-presenting cell lines; assay type: cell-based; details: compared with the cytotoxicity of disulfiram (DSF)
Excerpt: (§1) Biological replicates were averaged and normalized to vehicle control. Dose curves were generated using Graphpad Prism.

SH10TC cells [2] = experiment: CellTiter-Glo cellular viability assay, dose-response curves (FIG. 5B)
Description: (§2) Cell viability was assayed using a modified manufacturer's protocol for CellTiter-Glo® (Promega #G7573). Cells were seeded at a density of 2000 cells per well in a 96 well black, clear bottom plate (Corning #89091-012) in 100 uL total media per well. The following day different concentrations of compounds at various doses were printed in triplicate in a random well format using the Tecan D300e Digital Dispenser. After 120H, 60 μL of a 1:3 solution of CellTiterGlo reagent in 1×PBS (Corning #01018002) was added per well and allowed to incubate at RT for 10 mins. Luminescence was measured with an integration time of 0.1 s using Envision Microplates Reader (PERKIN ELMER #2105-0010). Biological replicates were averaged and normalized to vehicle control. Dose curves were generated using Graphpad Prism.

G401 cells [3] = experiment: as above
Description: as §2

[4] = test system: PRISM cancer cell lines stratified by chromosome 16q status; experiment: PRISM multiplexed cellular viability assay (drug repurposing library); assay type: cell-based, human; details: for cell killing profile: PRISM screen, compared with other compounds of the drug repurposing library
Description: Parental cell lines were obtained from the Cancer Cell Line Encyclopedia (CCLE) project (1). PRISM cell line barcoding, pooling, and screening was performed as previously described with several improvements to the original method (2). First, the lentiviral vector was modified to encode the unique barcode identifier at the end of the puromycin resistance gene. This enables barcodes to be detected using a variant of the mRNA capture and Luminex detection method developed for the L1000 gene expression assay (3). Second, a set of ten inert barcodes were spiked-in to each well of each plate after cell lysis to control for variation in PCR amplification as detailed below.
MFI values were log-transformed (log MFI) and used to perform basic quality control. To detect probable screening artifacts, log MFI values were centered to the median log MFI for each cell line on each plate in order to put the measurements from each cell line on the same scale. For each well on each plate, the median of these centered values was then standardized according to the global median and global MAD across all plate wells in the same position. Data from wells with a standardized score of greater than 5 or less than −5 were excluded from all further processing steps.
Cell viability was calculated as the ratio of nMFI to the median of the nMFI from the DMSO-treated negative controls for each cell line on each plate. Batch effects produced from variable detection and assay conditions were then removed using ComBat (4). The final viability values were calculated as the median of the batch-corrected cell viabilities from biological replicates for each cell line, compound and dose.
Measures of dose response were obtained by fitting 3-parameter logistic curves to viability values for each compound and cell line using the R package ‘dre’. Following the practice of Smirnov and Safikhani (5), viability was truncated at 1.0 and fit as a function of drug concentration according to: […]
[formula] The Area Under the dose response Curve (AUC) was calculated using the normalized integral: […]

metastatic melanoma = details: cited from earlier work
SF295 cells = experiment: Viability of SF295 cells with or without CRISPR-Cas9 MTF1 knockout (FIG. 7); assay type: cell-based; details: MTF1 sg1 and MTF1 sg2 versus control guide GFP sg1
Excerpt: XP003, XP023, psPAX, and pMD2.G vectors were acquired from the Broad Genetic Perturbation Platform (GPP). Oligos for sgRNAs designs were generated using Broad GPP sgRNA guide generator resource (broad institute.org/gpp/db/analysis-tools/sgrna-design) and the respective oligos were synthesized by Integrated DNA Technologies. In order to clone the sgRNAs into either the XPR003 guide only or XPRO23 all-in-one crispr lentiviral expression systems the protocol available on the Broad GPP website (broadinstitute.org/gpp/db/resources/protocols) was followed.
A mixture of 3E6 cells, virus, and media with 4 μg/mL polybrene (Millipore) at a total volume of 2 mL was plated per well of a 12 well plate. Cells were centrifuged at 2000 RPM for 2 hours at 30° C. After removal from incubator, 2 mL of fresh media was added to each well and cells were allowed to incubate at 37° C. overnight. The following day cells were selected for with puromycin for 3-10 days, or until the non-infected control cell were completely non-viable.
as §1

G401 cells [5] = test system: G401 cells
Description: as §2

SH10TC cells [6] = test system: SH10TC cells
Description: as §2

[7] = in chloroform, acetone and ether; cited from earlier work
[8] = cited from earlier work
[9] = order paclitaxel, elesclomol, disulfiram/thiram, DDC

Compound: CCN(CC)C(=S)S [DDC, Diethyldithiocarbamic acid]
- biomarker-predicted cytotoxic activity [1]: retain the cytotoxicity
- cytotoxic activity (dose-response) (SH10TC cells [2]): active
- rank of cytotoxicity IC50 among active agents (SH10TC cells [2]; [9]): highest IC50 value among those compounds that exhibited activity
- cytotoxic activity (dose-response) (G401 cells [3]): active
- rank of cytotoxicity IC50 among active agents (G401 cells [3]; [9]): highest IC50 value among those compounds that exhibited activity

Compound: CCN(CC)C(=S)SSC(=S)N(CC)CC [disulfiram, Disulfiram]
- cytotoxic activity (dose-response) (SH10TC cells [2]): active
- cytotoxic activity (dose-response) (G401 cells [3]): active
- disulfiram cytotoxicity (linear AUC) versus chromosome 16q status ([4]; Mann-Whitney U test, cell lines binned as 16q loss, normal, gain, 480 cell lines): strongly correlated with 16q loss

Compound: CN(NC(=O)CC(=O)NN(C)C(=S)c1ccccc1)C(=S)c1ccccc1 [elesclomol, Elesclomol]
- cytotoxic activity (dose-response) (SH10TC cells [2]): active
- cytotoxic activity (dose-response) (G401 cells [3]): active
- cell killing profile [4]: shared cell killing profile specific for cancer cell lines having 16q loss
- progression-free survival (metastatic melanoma; phase III study, combined with paclitaxel, halted in 2013): did not significantly increase progression-free survival
- progression-free survival (metastatic melanoma; small randomized phase II study, given in addition to paclitaxel): significantly increase progression-free survival
- effect of MTF1 knockout on sensitivity of SF295 cells (SF295 cells): sensitized

Compound: CCN(CC)C(=S)SC [methyl DDC, Methyl diethyldithiocarbamate]
- biomarker-predicted cytotoxic activity [1]: not observed to be cytotoxic
- cytotoxic activity (dose-response) (SH10TC cells [2]): inactive
- cytotoxic activity (dose-response) (G401 cells [3]): inactive

Compound: CC(=O)O[C@H]1C(=O)[C@@]2(C)[C@H]([C@H](OC(=O)c3ccccc3)[C@]3(O)C[C@H](OC(=O)[C@H](O)[C@@H](NC(=O)c4ccccc4)c4ccccc4)C(C)=C1C3(C)C)[C@]1(OC(C)=O)CO[C@@H]1C[C@@H]2O [paclitaxel]
- cytotoxic activity (dose-response) (SH10TC cells [2]): active
- cytotoxic activity (dose-response) (G401 cells [3]): active
- rank of cytotoxicity IC50 among active agents (G401 cells [5]): lowest IC50 value
- rank of cytotoxicity IC50 among active agents (SH10TC cells [6]): lowest IC50 value

Compound: CN(C)C(=S)SSC(=S)N(C)C [thiram, Thiram]
- cytotoxic activity (dose-response) (SH10TC cells [2]): active
- cytotoxic activity (dose-response) (G401 cells [3]): active
- cell killing profile [4]: shared cell killing profile specific for cancer cell lines having 16q loss
- solubility [7]: dissolve completely
- toxicity ([8]; by ingestion): moderately toxic
- toxicity ([8]; if inhaled): highly toxic

Compound: copper(II) diethyldithiocarbamate [Cu-DDC]
- biomarker-predicted cytotoxic activity [1]: retain the cytotoxicity
